Reference: PubChem BioAssay (NCI)
“And” between values parts separate entries of the source, which are not always exact repeats. Identical values can stand only once.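 Values below derive from 48-hour exposures of cells grown in 96-well plates, with endpoints linearly interpolated between the two concentrations bracketing the appropriate inhibition level. GI50 marks 50% less growth. TGI marks complete inhibition of growth.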 Where a SMILES comes first, the peptide text is derived from it. The star is where a group is joined. Boc = CC(C)(C)OC(=O)*

What follows are molecules tested on CCRF-CEM leukemia (assay: DTP human tumour cell line panel, 48 h).
`Cn1c(Nc2ccc(C(F)(F)F)cc2)nc2cc(Oc3ccnc(-c4ncc(C(F)(F)F)[nH]4)c3)ccc21` showed a GI50 of 251 nM and a TGI of 5.17 µM. In the case of `CN(C)C/C=C/C(=O)Nc1cc2c(Nc3ccc(F)c(Cl)c3)ncnc2cc1O[C@H]1CCOC1`, the GI50 is reported as 1790 nM and 1530 nM and the TGI is reported as 9.17 µM and > 7.56 µM. `Cn1cnnc1Sc1c([N+](=O)[O-])ncn1C` was tested, and the TGI was > 100 µM. `C=CCC1(CN(C)C)CC/C(=C\c2ccc(Cl)cc2)C1=O` (configuration not stated) gave a TGI of 24 µM. In the case of `COC(=O)c1cc2c(s1)-c1nccc3c1c(nc1ccccc13)C2=O`, the GI50 is reported as > 100000 nM and the TGI is reported as > 100 µM. `C[Si](C)(C)/C(I)=C/CO` was tested, and the TGI was 48.2 µM. `Oc1ccc(Nc2c3ccccc3nc3occ(Cl)c23)cc1` was tested, and the GI50 was 1420 nM and the TGI was 6.12 µM. With `CCCCCCCN=C(N)c1ccc(N2CCN(c3ccc(C(N)=NCCCCCCC)cc3)CC2)cc1` the GI50 was 1100 nM and the TGI was > 100 µM. For `C[Si](C)(C)/C(Br)=C\CCN1C(=O)CCC1=O`, the TGI was > 100 µM. `C[C@]12CCC(=O)C=C1CC[C@@H]1C2CC[C@]2(C)Nc3[nH]ncc3CC12` (some centres not stated) was tested, and the TGI was > 100 µM. `CCOC(=O)/C=C/c1ccc(C#Cc2ccccc2)cc1` was tested, and the GI50 was > 100000 nM and the TGI was > 100 µM. In the case of `O=[P@@]1(c2ccccc2)O[C@H](COCc2ccccc2)[C@@H](OCc2ccccc2)[C@H](OCc2ccccc2)[C@H]1NCc1ccccc1`, the GI50 is reported as 3230 nM and the TGI is reported as > 100 µM. For `C[C@H]1CN[C@@H]2[C@@H](C)[C@H]3[C@@H](C[C@H]4[C@@H]5CC[C@H]6C[C@@H](N)CC[C@]6(C)[C@H]5CC[C@]34C)O[C@@]2(O)C1`, the TGI was 4.27 µM. With `CSc1ccccc1C#C/C=C\C#Cc1ccccc1N` the GI50 was 4980 nM and the TGI was > 100 µM. `CCN(CC)CCSc1c2ccccc2nc2c(OC)ccc(OC)c12` was tested, and the TGI was > 68.9 µM. In the case of `CCOC(=O)c1ccc(N=Nc2cc(C(=O)OCC)ccc2O)cc1`, the TGI is reported as > 100 µM. With `[N-]=[N+]=N/C1=C/CCCCC(=O)C1` the TGI was > 100 µM. In the case of `CC(C)OC(=O)[C@H](C)NP(=O)(OC[C@H]1O[C@@H](n2ccc(=O)[nH]c2=O)[C@](C)(F)[C@@H]1O)Oc1ccccc1` (some centres not stated), the GI50 is reported as > 100000 nM and the TGI is reported as > 100 µM. With `Cc1cc(N(CCCNc2ccnc3cc(Cl)ccc23)Cc2ccc3c(c2)OCO3)nc(N2CCOCC2)n1` the GI50 was 380 nM and the TGI was > 100 µM. For `C=CCN1CCC23c4c5ccc(O)c4OC2C(=NN=C2CCC4(O)C6Cc7ccc(O)c8c7C4(CCN6CC=C)C2O8)CCC3(O)C1C5` (configuration not stated), the TGI was > 100 µM. Molecule `CN(C)CCNC(=O)c1cccc2c(Nc3ccc(S(=O)(=O)N=C(N)N)cc3)c3ccccc3nc12` has a TGI of 30.2 µM. `COC(=O)c1ccc(-c2c(C#N)[n+](=O)c3cc(Cl)c(Cl)cc3n2[O-])cc1` showed a GI50 of 2850 nM and a TGI of 7.79 µM. `COC(=O)C(C)NC(=O)C(CCSC)NC(=O)C(Cc1ccccc1)NC(=O)OC(C)(C)C` (stereo not drawn) (Boc-Phe-Met-Ala-OMe; configuration not given here) gave a GI50 of 2.63 µg/mL. `CC(C)=CCc1cc2c(cc1O)OC[C@H]1c3cc4c(cc3O[C@@H]21)OCO4` showed a TGI of 80.8 µM. Molecule `Cn1cc(-c2csc(-c3c[nH]c4ccc(Br)cc34)n2)c2cnccc21` has a GI50 of 422 nM and a TGI of 1.86 µM.

Each molecule was assayed on SN12C renal (assay: DTP human tumour cell line panel, 48 h).
`Cn1c(Nc2ccc(C(F)(F)F)cc2)nc2cc(Oc3ccnc(-c4ncc(C(F)(F)F)[nH]4)c3)ccc21` gave a GI50 of 85.5 nM and a TGI of 16.6 µM. With `C[C@@]12CCC[C@@](C)(C(=O)O)C1CC[C@]13CC(=O)[C@](CO)(C1)[C@@H](O)CC32` (some centres not stated) the GI50 was > 100000 nM and the TGI was > 100 µM. `CN(C)C/C=C/C(=O)Nc1cc2c(Nc3ccc(F)c(Cl)c3)ncnc2cc1O[C@H]1CCOC1` was tested, and the GI50 was 1460 nM and 576 nM and the TGI was 14.8 µM and > 10 µM. For `Cn1cnnc1Sc1c([N+](=O)[O-])ncn1C`, the TGI was > 100 µM. For `C=CCC1(CN(C)C)CC/C(=C\c2ccc(Cl)cc2)C1=O` (configuration not stated), the TGI was > 100 µM. In the case of `COC(=O)c1cc2c(s1)-c1nccc3c1c(nc1ccccc13)C2=O`, the GI50 is reported as > 100000 nM and the TGI is reported as > 100 µM. `C[Si](C)(C)/C(I)=C/CO` was tested, and the TGI was 64.7 µM. In the case of `Oc1ccc(Nc2c3ccccc3nc3occ(Cl)c23)cc1`, the GI50 is reported as 2890 nM and the TGI is reported as 26.4 µM. In the case of `CCCCCCCN=C(N)c1ccc(N2CCN(c3ccc(C(N)=NCCCCCCC)cc3)CC2)cc1`, the GI50 is reported as 1080 nM and the TGI is reported as 14.7 µM. For `C[Si](C)(C)/C(Br)=C\CCN1C(=O)CCC1=O`, the TGI was > 100 µM. In the case of `Cc1ccc(S(=O)OCc2c(C)c(C)c(COS(=O)c3ccc(C)cc3)c(C)c2C)cc1` (configuration not stated), the TGI is reported as > 100 µM. In the case of `CCOC(=O)/C=C/c1ccc(C#Cc2ccccc2)cc1`, the GI50 is reported as > 100000 nM and the TGI is reported as > 100 µM. With `O=[P@@]1(c2ccccc2)O[C@H](COCc2ccccc2)[C@@H](OCc2ccccc2)[C@H](OCc2ccccc2)[C@H]1NCc1ccccc1` the GI50 was 1830 nM and the TGI was 3.6 µM. In the case of `C[C@H]1CN[C@@H]2[C@@H](C)[C@H]3[C@@H](C[C@H]4[C@@H]5CC[C@H]6C[C@@H](N)CC[C@]6(C)[C@H]5CC[C@]34C)O[C@@]2(O)C1`, the TGI is reported as 4.25 µM. In the case of `CSc1ccccc1C#C/C=C\C#Cc1ccccc1N`, the GI50 is reported as 8930 nM and the TGI is reported as 27.7 µM. With `COc1ccc(/C(=C\C=C(C#N)C#N)Sc2nc3ccccc3s2)cc1` the GI50 was 7060 nM and the TGI was 32.8 µM. In the case of `CCN(CC)CCSc1c2ccccc2nc2c(OC)ccc(OC)c12`, the TGI is reported as > 39.3 µM. In the case of `CCOC(=O)c1ccc(N=Nc2cc(C(=O)OCC)ccc2O)cc1`, the TGI is reported as > 100 µM. In the case of `Cc1cc2cc3c(=O)[nH]c(=O)[nH]c3nc2cc1C`, the TGI is reported as > 100 µM. With `[N-]=[N+]=N/C1=C/CCCCC(=O)C1` the TGI was > 100 µM. `CC(C)OC(=O)[C@H](C)NP(=O)(OC[C@H]1O[C@@H](n2ccc(=O)[nH]c2=O)[C@](C)(F)[C@@H]1O)Oc1ccccc1` (some centres not stated) was tested, and the GI50 was > 100000 nM and the TGI was > 100 µM. In the case of `O=C(O)c1ccc(C(=O)O)c2c(C(=O)O)ccc(C(=O)O)c12`, the TGI is reported as > 100 µM. `Cc1cc(N(CCCNc2ccnc3cc(Cl)ccc23)Cc2ccc3c(c2)OCO3)nc(N2CCOCC2)n1` showed a GI50 of 292 nM and a TGI of 14.4 µM. In the case of `O=C(/C=C/C=C/c1ccccc1)c1ccccc1`, the TGI is reported as 29.7 µM. With `CCOC(=O)C1SC(=Nc2ccccc2)N=C1C` (configuration not stated) the TGI was > 100 µM. `C=CCN1CCC23c4c5ccc(O)c4OC2C(=NN=C2CCC4(O)C6Cc7ccc(O)c8c7C4(CCN6CC=C)C2O8)CCC3(O)C1C5` (configuration not stated) showed a TGI of 47.8 µM. For `CN(C)CCNC(=O)c1cccc2c(Nc3ccc(S(=O)(=O)N=C(N)N)cc3)c3ccccc3nc12`, the TGI was 59.5 µM. Work on `COC(=O)c1ccc(-c2c(C#N)[n+](=O)c3cc(Cl)c(Cl)cc3n2[O-])cc1` yielded a GI50 of 14700 nM and a TGI of 29.3 µM. For `COC(=O)C(C)NC(=O)C(CCSC)NC(=O)C(Cc1ccccc1)NC(=O)OC(C)(C)C` (stereo not drawn) (Boc-Phe-Met-Ala-OMe; configuration not given here), the GI50 was 25.4 µg/mL and the TGI was 71.8 µg/mL and > 100 µM. `C/C(=N\NC(=S)N1CCCCCC1)c1ccccn1` was tested, and the GI50 was 24.6 nM and the TGI was 4.31 µM and 5.6 µM. `Cn1cc(-c2csc(-c3c[nH]c4ccc(Br)cc34)n2)c2cnccc21` gave a GI50 of 1750 nM and a TGI of 3.35 µM. Work on `COc1ccc(Cn2c(N)c(S(=O)(=O)c3ccc(Cl)cc3)c3nc(C#N)c(C#N)nc32)cc1` yielded a GI50 of 1450 nM and a TGI of 17.9 µM.

What follows are molecules tested on IGROV1 ovarian (assay: DTP human tumour cell line panel, 48 h).
`Cn1c(Nc2ccc(C(F)(F)F)cc2)nc2cc(Oc3ccnc(-c4ncc(C(F)(F)F)[nH]4)c3)ccc21` gave a GI50 of 0.0668 µM and a TGI of 15.4 µM. With `C[C@@]12CCC[C@@](C)(C(=O)O)C1CC[C@]13CC(=O)[C@](CO)(C1)[C@@H](O)CC32` (some centres not stated) the GI50 was > 100 µM and the TGI was > 100 µM. `CN(C)C/C=C/C(=O)Nc1cc2c(Nc3ccc(F)c(Cl)c3)ncnc2cc1O[C@H]1CCOC1` was tested, and the TGI was 12.5 µM and 2.35 µM. For `Cn1cnnc1Sc1c([N+](=O)[O-])ncn1C`, the TGI was > 100 µM. In the case of `C=CCC1(CN(C)C)CC/C(=C\c2ccc(Cl)cc2)C1=O` (configuration not stated), the TGI is reported as > 31.6 µM. `COC(=O)c1cc2c(s1)-c1nccc3c1c(nc1ccccc13)C2=O` was tested, and the GI50 was 28.8 µM and the TGI was > 100 µM. For `C[Si](C)(C)/C(I)=C/CO`, the TGI was > 100 µM. Work on `Oc1ccc(Nc2c3ccccc3nc3occ(Cl)c23)cc1` yielded a GI50 of 1.19 µM and a TGI of 5.32 µM. For `C[Si](C)(C)/C(Br)=C\CCN1C(=O)CCC1=O`, the TGI was > 100 µM. In the case of `Cc1ccc(S(=O)OCc2c(C)c(C)c(COS(=O)c3ccc(C)cc3)c(C)c2C)cc1` (configuration not stated), the TGI is reported as > 100 µM. In the case of `C[C@]12CCC(=O)C=C1CC[C@@H]1C2CC[C@]2(C)Nc3[nH]ncc3CC12` (some centres not stated), the TGI is reported as > 100 µM. `C[C@H]1CN[C@@H]2[C@@H](C)[C@H]3[C@@H](C[C@H]4[C@@H]5CC[C@H]6C[C@@H](N)CC[C@]6(C)[C@H]5CC[C@]34C)O[C@@]2(O)C1` was tested, and the TGI was 9.66 µM. Work on `COc1ccc(/C(=C\C=C(C#N)C#N)Sc2nc3ccccc3s2)cc1` yielded a GI50 of 10 µM and a TGI of 46.4 µM. For `CCN(CC)CCSc1c2ccccc2nc2c(OC)ccc(OC)c12`, the TGI was 51.4 µM. For `CCOC(=O)c1ccc(N=Nc2cc(C(=O)OCC)ccc2O)cc1`, the TGI was > 100 µM. With `Cc1cc2cc3c(=O)[nH]c(=O)[nH]c3nc2cc1C` the TGI was > 100 µM.
